Results as given in patent US20050256134A1, “Use of creatine analogues and creatine kinase modulators for the prevention and treatment of glucose metabolic disorders” (AVICENA GROUP, INC., priority 1995, published 2005).

How the values were obtained:
[1] = system: Male Zuker diabetic fatty (ZDF-fa/fa) rats; experiment: Creatine compounds as 1% of the diet, glucose and insulin levels in diabetic rats; format: in vivo, rat
From the text: (§1) This preliminary study was initiated to gain insight into the potential regulation of glucose levels by creatine compounds in ZDF rats, a widely studied rodent model of NIDDM (Peterson, Lessons from Animal Diabetes, 1994, Pages 225-230). Male Zuker diabetic fatty (ZDF-fa/fa) rats and their lean Zuker littermates (ZDF +/?) were from Genetic Models, Inc., Indianapolis, Ind. […] Hyperglycemia is initially manifested at about 7 weeks of age and all obese rats are fully diabetic by 12 weeks of age (fed blood glucose of greater than 500 mg %). This level of hyperglycemia increases slightly for several weeks thereafter. Between 7 and 10 weeks, blood insulin levels are high but these subsequently drop as the pancreatic beta cells cease to respond to the glucose stimulus. The lean (ZDF/Gmi) rats are the control counterparts of the diabetic animals. These rats have the same genetics as the obese animals except for the obesity trait. No phenotypic differences have been observed between these rats and other typical lean control rats.
(§2) Male Zuker diabetic fatty (ZDF-fa/fa) rats and Zuker lean littermates (ZDF +/?) were 12 weeks old when dosing with creatine compounds was initiated. The ZDF-fa/fa rats were completely diabetic. The littermates were the same age. […] Animals were bled regularly throughout the experiment and glucose and insulin levels were determined using standard procedures (Linco RI-13K). […]

[2] = system: female Fisher 344 rats bearing rat mammary adenocarcinoma 13762; experiment: Effect of creatine compounds on glucose levels in rats bearing tumors (i.v., days 4-8 and 14-18); format: in vivo; settings: for Glucose Levels: i.v. days 4-8 and 14-18
Procedure: Two creatine compounds, creatine phosphate and cyclocreatine, were injected intravenously into tumor bearing rats, and the level of glucose in the rats was monitored. Beta guanidino propionic acid, also was administered. […] There was no specific reason for using tumor bearing rats, except convenience because the antitumor activity of these compounds also was being studied. The presence of the tumors should not have any effect on the ability of these compounds to regulate glucose levels. The rats carrying the tumors were described by us previously (see, […] et al., Cancer Chemother. Pharmacol, 35: 411-416, 1995). The schedule and dose selected in these experiments was based on prior experience working with this class of compounds as anticancer or antiviral chemotherapeutic agents. The rat mammary adenocarcinoma 13762 was implanted in the female Fisher 344 rats on day zero. The creatine compounds were administered intravenously on days 4-8 and days 14-18. The amounts used were 1 gm/kg of cyclocreatine, 0.93 gm/kg for beta guanidino propionic acid, and 2.32 gm/kg for creatine phosphate. […] Plasma glucose levels were measured at around 11 a.m., by taking a drop of blood from the animals and testing glucose levels using a commercial kit ([…] bG, Boehringer Mannheim). For animals that were treated with drugs, the treatment was around 9 a.m., and bleeding was also at around 11 a.m. To examine more closely what occurred in the above two experiments, the average readings of glucose levels from experiments one and two were taken in the following time intervals post drug treatment: Days 2-3, Days 4-8, Days 8-12, Days 14-18, Day 15 and Days 19-22.

[3] = system: Zuker lean littermates (ZDF +/?); experiment: Creatine compounds as 1% of the diet, glucose and insulin levels in lean littermates; format: in vivo, rat
From the text: as §1, §2

Structure (SMILES): NC1=NCCN1CC(=O)O [cyclocreatine]
- drop in glucose levels ([1]; obese diabetic animals, vs Day 0, n=3): ~20%
- effect on insulin levels ([1]; obese fatty animals): minimally affected
- Glucose Levels ([2]; Example 1): two drops in glucose levels at the time of drug administration
- Glucose Levels ([2]; Example 2 (repeat)): induced a drop in the level of glucose after each administration
- drop in glucose level ([2]; average of experiments one and two, day 15): ≤ 50%
- drop in insulin levels ([3]; lean animals): over 50%
- drop in level of glucose ([3]; lean rats, vs Day 0, n=3): about 15%
